Activity calls are given as the source filed them. The rule behind the calls is not given here.
Tests used:
[1] = biological target: Signal transducer and activator of transcription 3 (Homo sapiens) (UniProt P40763); test: Inhibition of STAT3 phosphorylation at Tyr-705 residue in human MDA-MB-231 cells at 8 to 10 uM after 12 hrs by Western blot analysis; type: cell-based
A549 [2] = test: […] of beta-tubulin polymerization in human A549 cells at 1 uM after 12 to 24 hrs by DAPI staining based confocal microscopic method; type: cell-based
[3] = biological target: Signal transducer and activator of transcription 3 (Homo sapiens) (UniProt P40763); test: Inhibition of STAT3 phosphorylation at Tyr-705 residue in human MDA-MB-231 cells after 12 hrs by Western blot analysis; type: cell-based
[4] = biological target: Signal transducer and activator of transcription 3 (Homo sapiens) (UniProt P40763); test: Inhibition of IL-6-stimulated STAT3 phosphorylation at Tyr-705 residue in human MDA-MB-231 cells at 1 to 4 uM preincubated for 2 hrs followed by IL-6 stimulation measured after 30 mins by Western blot analysis; type: cell-based
[5] = Solubility of the compound in 0.1% DMSO; type: physicochemical
A549 [6] = test: Inhibition of beta-tubulin polymerization in human A549 cells at 1 uM after 12 to 24 hrs by DAPI staining based confocal microscopic method; type: cell-based

Sequence of Signal transducer and activator of transcription 3 (Homo sapiens) (P40763 whole entry): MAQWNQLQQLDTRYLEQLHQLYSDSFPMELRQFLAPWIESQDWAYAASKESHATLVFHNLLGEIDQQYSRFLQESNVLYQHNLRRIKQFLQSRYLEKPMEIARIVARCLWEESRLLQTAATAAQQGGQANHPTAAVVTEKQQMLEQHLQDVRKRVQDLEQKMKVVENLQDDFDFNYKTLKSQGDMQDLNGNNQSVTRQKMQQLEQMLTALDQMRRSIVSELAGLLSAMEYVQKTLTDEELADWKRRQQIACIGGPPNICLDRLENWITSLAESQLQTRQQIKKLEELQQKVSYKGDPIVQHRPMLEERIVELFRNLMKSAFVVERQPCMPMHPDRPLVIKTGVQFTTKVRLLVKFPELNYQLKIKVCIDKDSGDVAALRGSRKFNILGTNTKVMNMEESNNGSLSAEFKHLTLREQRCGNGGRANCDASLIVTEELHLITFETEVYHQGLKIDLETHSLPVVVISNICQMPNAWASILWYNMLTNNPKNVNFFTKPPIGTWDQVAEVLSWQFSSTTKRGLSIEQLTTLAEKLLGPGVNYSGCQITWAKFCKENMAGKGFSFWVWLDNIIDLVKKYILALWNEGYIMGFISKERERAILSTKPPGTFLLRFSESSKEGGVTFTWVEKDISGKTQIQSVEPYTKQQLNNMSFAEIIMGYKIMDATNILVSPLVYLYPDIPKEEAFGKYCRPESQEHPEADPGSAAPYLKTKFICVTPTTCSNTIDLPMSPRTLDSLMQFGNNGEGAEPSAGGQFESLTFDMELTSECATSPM

**Q.** Which inhibition [1] does the source give for `O=C(C1=Cc2cc(Br)ccc2S1(=O)=O)N1CCCCC1` here?
**A.** Active

**Q.** For `CC(=O)O[C@H]1C(=O)[C@@]2(C)[C@H]([C@H](OC(=O)c3ccccc3)[C@]3(O)C[C@H](OC(=O)[C@H](O)[C@@H](NC(=O)c4ccccc4)c4ccccc4)C(C)=C1C3(C)C)[C@]1(OC(C)=O)CO[C@@H]1C[C@@H]2O`, which Activity (A549 [2]) is on record?
**A.** Active

**Q.** With `COc1ccc(S(=O)(=O)n2ccc3cccc(-c4ccc(C#N)c(F)c4)c32)cc1` as the molecule, how does the inhibition [3] read?
**A.** Dose-dependent effect

**Q.** And the inhibition [4]?
**A.** Active

**Q.** With `COc1ccc(S(=O)(=O)n2ccc3cccc(-c4ccc(S(C)(=O)=O)cc4)c32)cc1` as the molecule, how does the inhibition [3] read?
**A.** Dose-dependent effect

**Q.** For `COc1ccc(S(=O)(=O)n2cc(Cl)c3cccc(-c4ccc(Cl)cc4)c32)cc1`, which solubility [5] is on record?
**A.** Insoluble

**Q.** With `COc1cc2c(c(OC)c1OC)-c1ccc(OC)c(=O)cc1[C@@H](NC(C)=O)CC2` as the molecule, how does the inhibition (A549 [6]) read?
**A.** Active

**Q.** For `COc1ccc(S(=O)(=O)n2ccc3cccc(Nc4ccc(C#N)c(F)c4)c32)cc1`, which inhibition [3] is on record?
**A.** Dose-dependent effect

— ChEMBL document CHEMBL4177708, “N-Arylsulfonylsubstituted-1H indole derivatives as small molecule dual inhibitors of signal transducer and activator of transcription 3 (STAT3) and tubulin” (Bioorg Med Chem, 2018)
